Data as given in US7063966B2, “Chimeric G protein coupled receptors” (SRI International, priority 2001, dated 2006).
Where two headings read alike, the source gives them in different places.

Experiments:
Assay type in all cases: cell-based
Edg 1 = Edg 1 (Homo sapiens, UniProt P21453); test: Intracellular calcium mobilization (FLIPR) in HTC4 cells expressing Edg 1; conditions: 100 nM S1P, FIG. 2
Method: (§1) Media from GP-293 cells was collected and filtered through a […] PES syringe filter to remove cell debris. Polybrene (hexadimethrine bromide, Sigma) was added to each virus laden supernatant to a final concentration of […]. After removing the culture medium from the target cells, the virus-laden medium was used to overlay the host cell line HTC4 (rat hepatoma cell line; from Ed Goetzl, UCSF). Following infection, cells were incubated for 18–24 hours. Cells resistant to antibiotic (Geneticin, G418, […], Sigma) were selected. Clonal populations were selected from the pooled stable cells using a standard limiting dilution technique (adapted from “Antibodies: A Laboratory Manual”; 1988, Harlow, E. and Lane, D., Cold Spring Harbor Laboratory, New York).
(§2) HTC4 rat hepatoma cells stably transfected with Edg 1, Edg 1/3(ct), Edg1/3(i3ct) or Edg1/3(i2i3ct) according to Example 6.7 were plated on 384-well plates and loaded with a calcium dye loading kit (Molecular Devices, Sunnyvale, Calif.) for 1 hour at room temperature. Cells were then placed on FLIPR^384 (Molecular Devices, Sunnyvale, Calif.) and excited by an argon laser at 488 nm. In this assay, fluorescence changes over basal levels indicate an increase in intracellular calcium. In FIG. 2, basal fluorescence is at 0 (arbitrary units). […]

Edg1/3(i3ct) [1] = molecular target: T1, Edg1/3(i3ct) (Homo sapiens, UniProt P21453, DEL241-247/F237N/K239N/K250R/K256R/L235V/L252M/N315S/R231S/R234K/R238H/T230S/T236A); test: Dose response of intracellular calcium mobilization (FLIPR) in HTC4 cells expressing chimeric Edg1/3(i3ct)
T1 construct: DNA encoding the full length Edg 1/3(i3ct) chimera was then produced in a tertiary PCR reaction; expressed in transfected cells

Edg 1/3(ct) = molecular target: T2, Edg 1/3(ct) (Homo sapiens, UniProt P21453, N315S); test: Intracellular calcium mobilization (FLIPR) in HTC4 cells expressing Edg 1/3(ct); conditions: 100 nM S1P, FIG. 4
T2 construct: DNA encoding the full length Edg 1/3(ct) chimera was produced in a secondary PCR reaction; expressed in transfected cells
Method: as §1, §2

Edg1/3(i2i3ct) = molecular target: T3, Edg1/3(i2i3ct) (Homo sapiens, UniProt P21453, DEL241-247/F158H/F237N/G154A/H152Y/I144L/K150R/K239N/K250R/K256R/L147I/L151P/L235V/L252M/N153D/N156K/N157R/N315S/R231S/R234K/R238H/S155N/T230S/T236A/Y143H); test: Intracellular calcium mobilization (FLIPR) in HTC4 cells expressing Edg1/3(i2i3ct); conditions: 100 nM S1P, FIG. 2
T3 construct: DNA encoding the full length Edg 1/3(i2i3ct) chimera was then produced in a tertiary PCR reaction; expressed in transfected cells
Method: as §1, §2

Edg1/3(i3ct) [2] = molecular target: T1, Edg1/3(i3ct); test: Intracellular calcium mobilization (FLIPR) in HTC4 cells expressing Edg1/3(i3ct), single concentration; conditions: 100 nM S1P, FIG. 2
Method: as §1, §2

Edg8/4(ct) = molecular target: T4, Edg8/4(ct) (Homo sapiens, UniProt Q9H228); test: Intracellular calcium mobilization (FLIPR) in HTC4 cells expressing Edg8/4(ct); conditions: 100 nM S1P, FIG. 5
T4 construct: DNA encoding the full length Edg 8/4(ct) chimera was produced in a secondary PCR reaction; expressed in transfected cells
Method: as §1
(§3) HTC4 rat hepatoma cells stably transfected with Edg5/3(i3ct) and Edg8/4(ct) according to Example 6.7 were plated on 384-well plates and loaded with a calcium dye loading kit (Molecular Devices, Sunnyvale, Calif.) for 1 hour at room temperature. Cells were then placed on FLIPR^384 (Molecular Devices, Sunnyvale, Calif.) and excited by an argon laser at 488 nm. In this assay, fluorescence changes over basal levels indicate an increase in intracellular calcium. […] The cells were contacted with 100 nM of the Edg 5 and Edg 8 agonist sphingosine-1-phosphate (S1P) 50 seconds after the start of the assay.

Edg5/3(i3ct) = molecular target: T5, Edg5/3(i3ct) (Homo sapiens, UniProt O95136, A221R/A225S/D222K/F113S/H220S/INS224NHNN/K233R/L229M/M223V/P226E/Q227R/R217K/T228S); test: Intracellular calcium mobilization (FLIPR) in HTC4 cells expressing Edg5/3(i3ct); conditions: 100 nM S1P, FIG. 5
T5 construct: DNA encoding the full length Edg 5/3(i3ct) chimera was then produced in a tertiary PCR reaction; expressed in transfected cells
Method: as §1, §3

T1 sequence (P21453 with tags, fused parts or gaps with the stated changes): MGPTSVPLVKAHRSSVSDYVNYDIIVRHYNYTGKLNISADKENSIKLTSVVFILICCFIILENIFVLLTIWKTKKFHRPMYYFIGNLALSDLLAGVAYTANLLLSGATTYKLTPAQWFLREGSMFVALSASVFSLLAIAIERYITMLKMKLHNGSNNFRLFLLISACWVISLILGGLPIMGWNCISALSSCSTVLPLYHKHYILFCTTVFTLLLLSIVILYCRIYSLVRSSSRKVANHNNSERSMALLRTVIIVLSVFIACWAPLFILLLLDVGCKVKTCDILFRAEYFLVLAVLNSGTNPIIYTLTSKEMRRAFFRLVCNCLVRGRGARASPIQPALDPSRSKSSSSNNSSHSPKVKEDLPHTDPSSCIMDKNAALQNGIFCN
T5 sequence (O95136 with tags, fused parts or gaps with the stated changes): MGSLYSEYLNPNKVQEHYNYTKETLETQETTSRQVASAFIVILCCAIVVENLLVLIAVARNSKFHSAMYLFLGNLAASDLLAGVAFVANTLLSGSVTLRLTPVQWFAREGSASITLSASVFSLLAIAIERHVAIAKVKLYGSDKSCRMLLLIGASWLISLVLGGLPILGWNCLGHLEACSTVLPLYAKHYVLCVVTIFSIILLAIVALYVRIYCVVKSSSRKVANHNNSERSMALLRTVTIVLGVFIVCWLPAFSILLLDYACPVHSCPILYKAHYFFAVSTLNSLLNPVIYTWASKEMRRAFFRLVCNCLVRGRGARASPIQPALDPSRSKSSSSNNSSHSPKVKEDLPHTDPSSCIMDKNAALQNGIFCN
Edg 1, sequence (P21453 whole entry): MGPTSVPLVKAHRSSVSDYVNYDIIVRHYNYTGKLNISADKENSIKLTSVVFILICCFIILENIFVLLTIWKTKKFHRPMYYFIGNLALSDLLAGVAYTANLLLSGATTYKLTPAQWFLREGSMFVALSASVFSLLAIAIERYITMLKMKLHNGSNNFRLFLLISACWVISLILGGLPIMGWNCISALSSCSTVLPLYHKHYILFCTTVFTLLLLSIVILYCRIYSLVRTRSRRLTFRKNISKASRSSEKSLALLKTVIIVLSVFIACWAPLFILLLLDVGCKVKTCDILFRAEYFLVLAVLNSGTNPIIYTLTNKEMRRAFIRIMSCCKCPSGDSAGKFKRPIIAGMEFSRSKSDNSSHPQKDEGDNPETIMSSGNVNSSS
T2 sequence (P21453 with tags, fused parts or gaps N315S): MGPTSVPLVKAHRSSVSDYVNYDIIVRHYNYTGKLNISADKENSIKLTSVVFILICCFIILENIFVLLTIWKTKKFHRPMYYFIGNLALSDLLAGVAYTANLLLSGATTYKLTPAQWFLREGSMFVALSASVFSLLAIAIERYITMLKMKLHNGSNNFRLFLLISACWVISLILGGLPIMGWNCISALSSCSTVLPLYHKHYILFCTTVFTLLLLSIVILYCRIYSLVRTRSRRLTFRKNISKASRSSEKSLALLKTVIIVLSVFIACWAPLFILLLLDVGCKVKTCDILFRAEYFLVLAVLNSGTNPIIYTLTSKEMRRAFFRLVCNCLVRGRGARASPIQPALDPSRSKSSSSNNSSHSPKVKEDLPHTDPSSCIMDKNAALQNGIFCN
T4 sequence (Q9H228 with tags, fused parts or gaps): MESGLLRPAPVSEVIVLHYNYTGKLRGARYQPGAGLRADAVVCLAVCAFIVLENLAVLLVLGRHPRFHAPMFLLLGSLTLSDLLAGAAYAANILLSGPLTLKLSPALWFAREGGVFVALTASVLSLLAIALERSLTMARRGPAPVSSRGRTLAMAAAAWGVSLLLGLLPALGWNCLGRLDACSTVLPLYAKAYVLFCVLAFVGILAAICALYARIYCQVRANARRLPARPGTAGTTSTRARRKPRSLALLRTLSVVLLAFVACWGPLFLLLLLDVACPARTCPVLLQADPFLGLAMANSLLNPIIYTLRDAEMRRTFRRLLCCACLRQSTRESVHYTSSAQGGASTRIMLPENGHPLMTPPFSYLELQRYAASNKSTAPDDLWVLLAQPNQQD
T3 sequence (P21453 with tags, fused parts or gaps with the stated changes): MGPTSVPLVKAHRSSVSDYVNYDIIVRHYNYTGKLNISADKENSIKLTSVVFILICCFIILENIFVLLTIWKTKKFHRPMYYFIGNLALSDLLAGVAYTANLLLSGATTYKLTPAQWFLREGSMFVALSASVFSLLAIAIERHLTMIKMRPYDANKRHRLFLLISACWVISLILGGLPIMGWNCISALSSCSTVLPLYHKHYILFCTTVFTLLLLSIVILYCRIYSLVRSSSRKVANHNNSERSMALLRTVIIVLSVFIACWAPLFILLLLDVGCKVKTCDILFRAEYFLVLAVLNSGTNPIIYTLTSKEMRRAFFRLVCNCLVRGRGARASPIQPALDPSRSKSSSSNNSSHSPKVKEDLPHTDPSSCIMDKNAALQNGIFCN

Row | Structure (SMILES) | change in intracellular calcium (Edg 1) | EC50 (Edg1/3(i3ct) [1]) [nM] | intracellular calcium mobilization (Edg 1/3(ct)) | change in intracellular calcium (Edg1/3(i2i3ct)) | change in intracellular calcium (Edg1/3(i3ct) [2]) | intracellular calcium mobilization (Edg8/4(ct)) | intracellular calcium mobilization (Edg5/3(i3ct)) | EC50 (Edg1/3(i3ct) [1]; HTC4 rat hepatoma cells stably transfected with Edg1/3(i3ct), FIG. 3, read-out: EC50 of intracellular calcium mobilization) [nM]
1 | CCCCCCCCCCCCC/C=C/[C@@H](O)[C@@H](N)COP(=O)(O)O [S1P, sphingosine-1-phosphate] | no change in intracellular calcium | ~10 | functional, although not as robust as Edg1/3(i3ct) or Edg1/3(i2i3ct) | significant change in intracellular calcium | significant change in intracellular calcium | mobilize intracellular calcium | mobilize intracellular calcium | 
2 | CCCCCCCCCCCCCCC[C@@H](O)[C@@H](N)COP(=O)(O)O [dihydro S1P, dihydro sphingosine-1-phosphate] |  |  |  |  |  |  |  | ~10
